Among the data in US20240327412A1, “FACTOR XIIA INHIBITORS” (KALVISTA PHARMACEUTICALS LIMITED, priority 2021, published 2024) are IC50 values, retold here.

Each structure is given as a SMILES string. pIC50: −log10 of the molar value.

The assay has as its target T1, Human Factor XIIa (Homo sapiens, UniProt P00748).
T1 construct: Proteolytic cleavage of FXII to heavy and light chains of FXIIa dramatically increases catalytic activity; purchased Enzyme Research Laboratories
T1 sequence (P00748 373-615 limits assumed): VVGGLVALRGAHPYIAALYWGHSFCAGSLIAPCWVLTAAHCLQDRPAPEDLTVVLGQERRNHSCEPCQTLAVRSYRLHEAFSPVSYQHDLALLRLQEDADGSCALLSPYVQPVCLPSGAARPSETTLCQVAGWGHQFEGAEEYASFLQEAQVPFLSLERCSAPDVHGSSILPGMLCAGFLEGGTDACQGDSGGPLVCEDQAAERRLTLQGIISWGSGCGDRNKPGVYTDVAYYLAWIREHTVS
T1 sequence (P00748 20-372 partner limits assumed): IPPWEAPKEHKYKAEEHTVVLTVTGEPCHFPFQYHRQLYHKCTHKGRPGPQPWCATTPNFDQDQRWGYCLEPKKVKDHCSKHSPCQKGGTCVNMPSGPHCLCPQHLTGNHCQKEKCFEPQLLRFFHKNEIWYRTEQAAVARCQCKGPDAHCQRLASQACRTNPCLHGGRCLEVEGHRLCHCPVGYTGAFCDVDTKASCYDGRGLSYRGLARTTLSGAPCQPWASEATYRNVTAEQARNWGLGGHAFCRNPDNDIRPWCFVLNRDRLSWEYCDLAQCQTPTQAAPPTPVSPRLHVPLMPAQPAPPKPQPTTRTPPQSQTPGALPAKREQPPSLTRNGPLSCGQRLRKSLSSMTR
In words: Determination of FXIIa inhibition (fluorogenic substrate H-DPro-Phe-Arg-AFC, IC50 assay). Format: biochemical. Conditions: substrate at Km concentration, 25° C.; category scale; read-out: Human FXII IC50 (nm). How it is done:
In vitro inhibition of Factor XIIa was determined using an IC50 assay based on standard literature methods (see e.g Baeriswyl et al., ACS Chem. Biol., 2015, 10 (8) 1861; Bouckaert et al., European Journal of Medicinal Chemistry 110 (2016) 181). Human Factor XIIa (Enzyme Research Laboratories) was incubated at 25° C. with the fluorogenic substrate H-DPro-Phe-Arg-AFC (Peptide Protein Science) and various concentrations of the test compound. Protease activity was measured by monitoring the accumulation of liberated fluorescence from the substrate over 5 min at 25° C. The linear rate of fluorescence increase per minute was expressed as percentage (%) activity. The Km for the cleavage of the substrate by FXIIa was determined by standard transformation of the Michaelis-Menten equation. The compound inhibitor assays were performed at substrate Km concentration. IC50 values were calculated as the concentration of inhibitor giving 50% inhibition (IC50) of the uninhibited enzyme activity (100%).
`Cn1ccc(OCC23CN(c4ccncc4)C(CNc4cccc5c(N)nccc45)(C2)C3)cc1=O` [Example 12065, 4-((1-(((1-aminoisoquinolin-5-yl)amino)methyl)-2-(pyridin-4-yl)-2-azabicyclo[2.1.1]hexan-4-yl)methoxy)-1-methylpyridin-2(1H)-one]: the pIC50 was 8.00 to 9.00. The result for `Cn1ccc(OCC23CN(C(=O)OCc4ccc5ccccc5c4)C(CNc4cccc5c(N)nccc45)(C2)C3)cc1=O` [Example 12024, naphthalen-2-ylmethyl 1-(((1-aminoisoquinolin-5-yl)amino)methyl)-4-(((1-methyl-2-oxo-1,2-dihydropyridin-4-yl)oxy)methyl)-2-azabicyclo[2.1.1]hexane-2-carboxylate] reads 6.52 to 7.00.

As to `Nc1nccc2c(NCC34CC(COc5ccn6ncnc6c5)(C3)C4)cccc12` [Example 1110, N5-((3-(([1,2,4]triazolo[1,5-a]pyridin-7-yloxy)methyl)bicyclo[1.1.1]pentan-1-yl)methyl)isoquinoline-1,5-diamine], the negative-log IC50 (pIC50) is 5.00 to 5.52. For the molecule `COc1cc(OCC23CCOC(CNc4cccc5c(N)nccc45)(C2)C3)ccn1` [Example 10944, N5-((5-(((2-methoxypyridin-4-yl)oxy)methyl)-2-oxabicyclo[3.1.1]heptan-1-yl)methyl)isoquinoline-1,5-diamine], the pIC50 was 5.52 to 6.00. The result for `Cn1ccc(OCC23CN(C(=O)CCc4cccc(Cl)c4)C(CNc4cccc5c(N)nccc45)(C2)C3)cc1=O` [Example 12049, 4-((1-(((1-aminoisoquinolin-5-yl)amino)methyl)-2-(3-(3-chlorophenyl)propanoyl)-2-azabicyclo[2.1.1]hexan-4-yl)methoxy)-1-methylpyridin-2(1H)-one] reads 7.00 to 8.00; that for `Cn1ccc(OCC23CC(CNc4cccc5c(N)nccc45)(CN2C(=O)OCc2ccccc2Cl)C3)cc1=O` [Example 13020, 2-chlorobenzyl 4-(((1-aminoisoquinolin-5-yl)amino)methyl)-1-(((1-methyl-2-oxo-1,2-dihydropyridin-4-yl)oxy)methyl)-2-azabicyclo[2.1.1]hexane-2-carboxylate], 7.00 to 8.00; that for `Nc1nccc2c(NCC34CC(NC(=O)c5ccc6nnc(C(F)F)n6c5)(C3)C4)cccc12` [Example 1132, N-(3-(((1-aminoisoquinolin-5-yl)amino)methyl)bicyclo[1.1.1]pentan-1-yl)-3-(difluoromethyl)-[1,2,4]triazolo[4,3-a]pyridine-6-carboxamide], 4.40 to 5.00. On to `Cn1ccc(OCC23CN(C(=O)CCc4cccc(C#N)c4)C(CNc4cccc5c(N)nccc45)(C2)C3)cc1=O` [Example 12044, 3-(3-(1-(((1-aminoisoquinolin-5-yl)amino)methyl)-4-(((1-methyl-2-oxo-1,2-dihydropyridin-4-yl)oxy)methyl)-2-azabicyclo[2.1.1]hexan-2-yl)-3-oxopropyl)benzonitrile], for which the pIC50 was 7.00 to 8.00. In the case of `Cc1cnc2ccc(OCC34COC(CNc5ccccc5C#N)(C3)C4)cn12` [Example 6658, 2-(((4-(((3-methylimidazo[1,2-a]pyridin-6-yl)oxy)methyl)-2-oxabicyclo[2.1.1]hexan-1-yl)methyl)amino)benzonitrile], the pIC50 is 4.40 to 5.00.

On to `Cn1ccc(OCC23CN(c4nc5ccccc5o4)C(CNc4cccc5c(N)nccc45)(C2)C3)cc1=O` [Example 12057, 4-((1-(((1-Aminoisoquinolin-5-yl)amino)methyl)-2-(benzo[d]oxazol-2-yl)-2-azabicyclo[2.1.1]hexan-4-yl)methoxy)-1-methylpyridin-2(1H)-one], for which the pIC50 was 8.00 to 9.00. For the molecule `Nc1nccc2c(NCC34CC(Cn5ccnc5)(CO3)C4)cccc12` [Example 6646, N5-((4-((1H-imidazol-1-yl)methyl)-2-oxabicyclo[2.1.1]hexan-1-yl)methyl)isoquinoline-1,5-diamine], the pIC50 is 4.00 to 4.40. Under `Cn1ccc(OCC23CN(C(=O)NCc4cccc(C(F)(F)F)c4)C(CNc4cccc5c(N)nccc45)(C2)C3)cc1=O` [Example 12069, 1-(((1-aminoisoquinolin-5-yl)amino)methyl)-4-(((1-methyl-2-oxo-1,2-dihydropyridin-4-yl)oxy)methyl)-N-(3-(trifluoromethyl)benzyl)-2-azabicyclo[2.1.1]hexane-2-carboxamide] stands 7.00 to 8.00; under `Nc1nccc2c(NCC34CC(COc5ccc6ncc(C7CC7)n6c5)(CO3)C4)cccc12` [Example 6639, N5-((4-(((3-cyclopropylimidazo[1,2-a]pyridin-6-yl)oxy)methyl)-2-oxabicyclo[2.1.1]hexan-1-yl)methyl)isoquinoline-1,5-diamine], 7.00 to 8.00; under `Nc1nccc2c(NCC34CC(COc5ccc6c(c5)C(=O)NC6=O)(CO3)C4)cccc12` [Example 6636, 5-((1-(((1-aminoisoquinolin-5-yl)amino)methyl)-2-oxabicyclo[2.1.1]hexan-4-yl)methoxy)isoindoline-1,3-dione], 5.00 to 5.52. The result for `Nc1nccc2c(NCC34CC(COc5cnccn5)(CCO3)C4)cccc12` [Example 10976, N5-((5-((pyrazin-2-yloxy)methyl)-2-oxabicyclo[3.1.1]heptan-1-yl)methyl)isoquinoline-1,5-diamine] reads 4.40 to 5.00; that for `Cc1cccc(OCC23CCOC(CNc4cccc5c(N)nccc45)(C2)C3)n1` [Example 10957, N5-((5-(((6-methylpyridin-2-yl)oxy)methyl)-2-oxabicyclo[3.1.1]heptan-1-yl)methyl)isoquinoline-1,5-diamine], 5.00 to 5.52; that for `Cn1ccc(OCC23CN(C(=O)Oc4ccccc4Cl)C(CNc4cccc5c(N)nccc45)(C2)C3)cc1=O` [Example 12015, 2-chlorophenyl 1-(((1-aminoisoquinolin-5-yl)amino)methyl)-4-(((1-methyl-2-oxo-1,2-dihydropyridin-4-yl)oxy)methyl)-2-azabicyclo[2.1.1]hexane-2-carboxylate], 7.00 to 8.00.

Regarding `CN(Cc1ccccc1)C(=O)N1CC2(CNc3cccc4c(N)nccc34)CC1(COc1ccn(C)c(=O)c1)C2` [Example 13011, 4-(((1-aminoisoquinolin-5-yl)amino)methyl)-N-benzyl-N-methyl-1-(((1-methyl-2-oxo-1,2-dihydropyridin-4-yl)oxy)methyl)-2-azabicyclo[2.1.1]hexane-2-carboxamide], the pIC50 was 6.00 to 6.52. The result for `Nc1nccc2c(NCC34CC(COc5cc6nccn6cn5)(CO3)C4)cccc12` [Example 6623, N5-((4-((imidazo[1,2-c]pyrimidin-7-yloxy)methyl)-2-oxabicyclo[2.1.1]hexan-1-yl)methyl)isoquinoline-1,5-diamine] reads 5.00 to 5.52. Under `Cc1cc(OCC23CN(C(=O)Cc4ccccc4)C(CNc4cccc5c(N)nccc45)(C2)C3)cc(=O)n1C` [Example 12039, 4-((1-(((1-aminoisoquinolin-5-yl)amino)methyl)-2-(2-phenylacetyl)-2-azabicyclo[2.1.1]hexan-4-yl)methoxy)-1,6-dimethylpyridin-2(1H)-one] stands 7.00 to 8.00; under `Cn1ccc2cc(OCC34COC(CNc5cccc6c(N)nccc56)(C3)C4)ccc2c1=O` [Example 6643, 6-((1-(((1-aminoisoquinolin-5-yl)amino)methyl)-2-oxabicyclo[2.1.1]hexan-4-yl)methoxy)-2-methylisoquinolin-1(2H)-one], 6.00 to 6.52. Consider `Nc1nccc2c(NCC34CC(COc5ccn6cnnc6c5)(C3)C4)cccc12` [Example 1135, N5-((3-(([1,2,4]triazolo[4,3-a]pyridin-7-yloxy)methyl)bicyclo[1.1.1]pentan-1-yl)methyl)isoquinoline-1,5-diamine], for which the pIC50 was 6.00 to 6.52. Regarding `Cn1ccc(OCC23CN(C(=O)CCc4ccc(=O)[nH]c4)C(CNc4cccc5c(N)nccc45)(C2)C3)cc1=O` [Example 12054, 4-((1-(((1-aminoisoquinolin-5-yl)amino)methyl)-2-(3-(6-oxo-1,6-dihydropyridin-3-yl)propanoyl)-2-azabicyclo[2.1.1]hexan-4-yl)methoxy)-1-methylpyridin-2(1H)-one], the pIC50 is 7.00 to 8.00. The result for `Cn1cc(OCC23CCOC(CNc4cccc5c(N)nccc45)(C2)C3)ccc1=O` [Example 10943, 5-((1-(((1-aminoisoquinolin-5-yl)amino)methyl)-2-oxabicyclo[3.1.1]heptan-5-yl)methoxy)-1-methylpyridin-2(1H)-one] reads 5.52 to 6.00.

In general, pIC50 refers to −log10 of the IC50, conventionally taken in molar units.
